Assay results reported in paper PMC8413479 (Journal of molecular biology, 2021).

B1: HD5: enteric human α-defensin HD5 (peptide, UniProt Q01523 20-94, looked up)
Defensin alpha 5: ESLQERADEATTQKQSGEDNQDLAISFAGNGLSALRTSGSQARATCYCRTGRCATRESLSGVCEISGRLYRLCCR
modifications: Defensin-5

What was measured:
[1] = tested on: SARS-CoV-2 Spike-pseudotyped viruses (HIV-based), H1299 cells; assay type: cell-based, SARS-CoV-2 Spike (HIV-based pseudovirus); human H1299 cells
SARS-CoV-2 Spike protein [2] = assay type: biochemical
[3] = tested on: SARS-CoV-2 (USA-WA1/2020), Vero E6 cells; assay type: cell-based
[4] = tested on: SARS-CoV-2 (USA-WA1/2020), Vero E6 cells
SARS-CoV-2 Spike protein [5] = assay: Differential scanning fluorimetry; assay type: binding; settings: 1 μM Spike, PBS, Sypro Orange
[6] = tested on: SARS-CoV-2 Spike/ACE2; Spike-expressing U2OS cells fusing with ACE2-producing Calu-3 cells; assay type: cell-based, human cells; SARS-CoV-2 Spike
[7] = tested on: human angiotensin-converting enzyme 2 (ACE2 receptor); settings: on enterocytes; cited from earlier work
[8] = tested on: SARS-CoV-2 Spike pseudovirus; settings: cited from earlier work
[9] = micromolar concentrations of defensin

| Molecule | effect of serum on inhibition of pseudovirus infection [1] | inhibition of infection after pre-incubation of pseudovirus [1] | pseudovirus infection efficiency after pre-treatment of cells [1] | aggregation and precipitation of Spike (SARS-CoV-2 Spike protein [2]) | SARS-CoV-2 infectivity [3] | inhibition of SARS-CoV-2 infection [4] | IC50 ([4]; USA-WA1/2020), Vero E6 cells, 24 h) [µM] | Spike destabilization relative to HNP1 (SARS-CoV-2 Spike protein [5]) | destabilization of Spike protein (SARS-CoV-2 Spike protein [5]; [9]) | melting peak of Spike (SARS-CoV-2 Spike protein [5]; [9]) | inhibition of syncytia formation [6] | binding to human ACE2 [7] | SARS-CoV-2 Spike pseudovirus infection [8] |
| --- | --- | --- | --- | --- | --- | --- | --- | --- | --- | --- | --- | --- | --- |
| CC[C@H](C)[C@@H]1NC(=O)CNC(=O)[C@H](CCCCN)NC(=O)CNC(=O)[C@@H]2CSSC[C@H](NC1=O)C(=O)N[C@@H](CCCNC(=N)N)C(=O)N[C@H]1CSSC[C@H](NC(=O)[C@H](CCCNC(=N)N)NC(=O)[C@@H]3CSSC[C@H](NC(=O)[C@H]([C@@H](C)CC)NC1=O)C(=O)NCC(=O)N[C@@H](CCCNC(=N)N)C(=O)NCC(=O)N[C@@H]([C@@H](C)CC)C(=O)N3)C(=O)N[C@@H]([C@@H](C)CC)C(=O)N2 [RC-101] | serum had a negative influence on the inhibitory ability | significantly inhibited the infection | did not affect the pseudovirus infection efficiency | partial aggregation and precipitation | strongly inhibited | inhibited SARS-CoV-2 infection | 29 ± 7.6 | less prominent than for HNP1 | destabilized | loss of the melting peak at its normal position | strongly inhibited syncytia formation | – | – |
| B1 | – | – | – | – | – | – | – | – | – | – | – | binds to human angiotensin-converting enzyme 2 | inhibition of SARS-CoV-2 Spike pseudovirus infection |
